One data set concerns the target rat nNOS (Rattus norvegicus (Rat), UniProt P29476).
The target in data set [1] is eNOS (Bos taurus, UniProt P29473). The following applies: read-out: Ki eNOS; Ki from IC50 by Cheng-Prusoff.
The test system of data set [2] is eNOS. To be noted: for Ratios n/e: selectivity nNOS over eNOS.
Data set [3] has as its target T1, iNOS (Mus musculus (Mouse), UniProt P29477). To be noted: for Ki: read-out: Ki iNOS, Ki from IC50 by Cheng-Prusoff; for Ratios n/i: selectivity nNOS over iNOS.
The next data set has as its system caco-2. The data set can be described thus: Caco-2 assay. Format: in vitro ADME.
The subject of data set [4] is panel of other CNS targets, including the muscarinic receptors. Nature of the data set: Primary binding assays on a panel of other CNS targets (NIMH PDSP). The following applies: 10 μM concentration.
A further data set concerns the target human nNOS (Homo sapiens (Human), UniProt P29475). The following applies: for Ki: read-out: Ki hnNOS, Ki from IC50 by Cheng-Prusoff.
Data set [5] addresses T1, iNOS. Nature of the data set: biochemical.
Another data set concerns the target CYP3A4 (Homo sapiens (Human), UniProt P08684). The data set can be described thus: CYP3A4 inhibition. Type of data set: in vitro ADME.
Setting [6] is: read-out: Ki nNOS, rat nNOS, Ki from IC50 by Cheng-Prusoff.
The mark [7] stands for this setting: rat nNOS, Ki from IC50 by Cheng-Prusoff.

Entries after “also recorded” stand apart in the source; their conditions may differ. Where two headings read alike, the source gives them in different places.

eNOS (Bos taurus, UniProt P29473), sequence (P29473 2-1205 limits assumed): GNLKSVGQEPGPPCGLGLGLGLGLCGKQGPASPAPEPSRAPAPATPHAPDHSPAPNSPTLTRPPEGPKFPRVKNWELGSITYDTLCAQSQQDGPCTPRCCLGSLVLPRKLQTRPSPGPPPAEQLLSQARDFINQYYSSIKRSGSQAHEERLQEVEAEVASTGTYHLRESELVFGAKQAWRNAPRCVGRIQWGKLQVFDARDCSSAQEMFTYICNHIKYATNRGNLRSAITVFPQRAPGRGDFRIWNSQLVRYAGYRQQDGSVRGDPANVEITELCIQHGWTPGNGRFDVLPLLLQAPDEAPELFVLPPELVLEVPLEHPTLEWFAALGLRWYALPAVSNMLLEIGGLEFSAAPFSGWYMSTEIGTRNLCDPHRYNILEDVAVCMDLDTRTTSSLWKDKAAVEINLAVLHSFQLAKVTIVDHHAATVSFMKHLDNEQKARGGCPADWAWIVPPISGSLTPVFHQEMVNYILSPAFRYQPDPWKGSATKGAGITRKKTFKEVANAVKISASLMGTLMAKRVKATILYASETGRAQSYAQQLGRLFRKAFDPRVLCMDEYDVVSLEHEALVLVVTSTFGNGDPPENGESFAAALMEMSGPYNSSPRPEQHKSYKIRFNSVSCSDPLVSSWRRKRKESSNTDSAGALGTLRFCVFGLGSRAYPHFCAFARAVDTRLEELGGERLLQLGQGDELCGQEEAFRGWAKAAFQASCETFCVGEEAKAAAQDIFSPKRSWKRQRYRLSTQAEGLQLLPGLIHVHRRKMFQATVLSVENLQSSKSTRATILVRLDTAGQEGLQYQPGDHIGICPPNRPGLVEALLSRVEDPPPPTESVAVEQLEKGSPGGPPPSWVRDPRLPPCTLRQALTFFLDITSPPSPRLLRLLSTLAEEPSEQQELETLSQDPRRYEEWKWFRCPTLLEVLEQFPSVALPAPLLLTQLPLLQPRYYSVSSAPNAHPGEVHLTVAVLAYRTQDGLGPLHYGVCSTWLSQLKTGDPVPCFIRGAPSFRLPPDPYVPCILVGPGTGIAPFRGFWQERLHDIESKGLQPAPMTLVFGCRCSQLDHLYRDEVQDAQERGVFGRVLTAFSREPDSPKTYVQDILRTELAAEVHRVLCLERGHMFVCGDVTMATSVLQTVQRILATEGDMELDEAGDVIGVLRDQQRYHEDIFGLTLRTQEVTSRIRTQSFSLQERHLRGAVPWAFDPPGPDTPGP
CYP3A4, sequence (P08684 whole entry, species assumed): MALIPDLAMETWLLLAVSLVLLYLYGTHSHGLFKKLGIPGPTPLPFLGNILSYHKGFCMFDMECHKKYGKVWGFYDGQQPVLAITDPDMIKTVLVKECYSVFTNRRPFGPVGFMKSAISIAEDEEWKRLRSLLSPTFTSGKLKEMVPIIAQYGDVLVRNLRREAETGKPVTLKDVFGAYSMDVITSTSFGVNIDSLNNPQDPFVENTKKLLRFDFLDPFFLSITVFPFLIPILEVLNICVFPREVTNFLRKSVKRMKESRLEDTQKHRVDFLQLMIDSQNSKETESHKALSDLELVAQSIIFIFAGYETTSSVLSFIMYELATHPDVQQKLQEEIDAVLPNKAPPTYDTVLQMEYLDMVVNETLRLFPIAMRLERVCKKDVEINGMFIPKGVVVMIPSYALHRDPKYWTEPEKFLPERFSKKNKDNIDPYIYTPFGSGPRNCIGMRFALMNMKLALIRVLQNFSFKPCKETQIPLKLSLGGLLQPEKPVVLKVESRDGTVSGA

As to `Fc1cccc(CCN2CCN(c3ccnc(-n4ccnc4)n3)CC2)c1` [Compound 2], the Ki at rat nNOS (setting [6]) worked out at 4.7 µM.

On to `Fc1cccc(CCNCCNc2ccnc(-n3ccnc3)n2)c1` [Compound 3], for which, at rat nNOS (setting [7]), the “Ki nNOS” value is recorded as “moderate submicromolar”. In addition, the Ki on rat nNOS (setting [6]) was determined as 0.37 µM. Besides, on eNOS [1], the Ki turned out to be 40 µM. In the data set with eNOS [2], the “selectivity over eNOS” value is on record as above 100 fold and the Ratios n/e stood at 109. Further, at iNOS [3], the “selectivity over iNOS” value amounted to 17 fold, the Ki worked out at 6.4 µM and the Ratios n/i was 17.

Regarding `Fc1cccc(CCNCc2ccnc(-n3ccnc3)n2)c1` [Compound 4], the Ki on rat nNOS (setting [6]) is 8.7 µM.

Regarding `Fc1cccc(CCCNCc2ccnc(-n3ccnc3)n2)c1` [Compound 5], the results for the Ki at rat nNOS (setting [6]), at eNOS [1] and on iNOS [3] were 2.7 µM, 90 µM and 10.5 µM, respectively. Moreover, in the data set on eNOS [2], the Ratios n/e is given as 33. The Ratios n/i at iNOS [3] turned out to be 4.

Turning to `Fc1cccc(CCNCCc2ccnc(-n3ccnc3)n2)c1` [Compound 6], the Ki at eNOS [1] stood at 4 µM; at iNOS [3] it was 1.1 µM.

For `Fc1cccc(CCCNCCc2ccnc(-n3ccnc3)n2)c1` [Compound 7], in the data set on caco-2, the “membrane / cellular permeability” value is “good cellular permeability; also recorded: has membrane permeability”. Also, in data set [4], the “inhibition of other CNS targets” value was “minimal inhibition for most of them”. Besides, the Ki at rat nNOS (setting [6]) was 0.019 µM; at eNOS [1], 4.95 µM; at iNOS [3], 0.77 µM; on human nNOS, 0.193 µM.

`Clc1cccc(CCCNCCc2ccnc(-n3ccnc3)n2)c1` [Compound 25]: the Ki was 0.032 µM at rat nNOS (setting [6]), 8.1 µM at eNOS [1], 0.125 µM at human nNOS and 2 µM at iNOS [5]. Besides, the Ratios n/e in the data set on eNOS [2] was found to be 253. The Ratios n/i at iNOS [3] is recorded as 28.

`Fc1cccc(C2CC2CNCCc2ccnc(-n3ccnc3)n2)c1` (centres unmarked) [Compound 26]: the Ki is 0.056 µM on rat nNOS (setting [6]), 4 µM at eNOS [1], 1.9 µM at iNOS [3] and 0.359 µM on human nNOS. The Ratios n/e with eNOS [2] was found to be 71. Moreover, the Ratios n/i on iNOS [3] was determined as 34.

On to `Fc1cccc(CC2CC2NCCc2ccnc(-n3ccnc3)n2)c1` (centres unmarked) [Compound 27], for which the figures for the Ki at rat nNOS (setting [6]), on eNOS [1] and at human nNOS were 0.04 µM, 14.5 µM and 0.358 µM, respectively.

For `N#Cc1cccc(CNCCc2ccnc(-n3ccnc3)n2)c1` [Compound 28], the Ki at rat nNOS (setting [6]) worked out at 0.183 µM; at eNOS [1], 10.5 µM; at iNOS [3] it was 3.4 µM; at human nNOS it was 0.138 µM.

As for `c1cncc(CCCNCCc2ccnc(-n3ccnc3)n2)c1` [Compound 29], at rat nNOS (setting [7]), the “Ki nNOS” value is “good potency”. The Ki on rat nNOS (setting [6]) came out at 0.054 µM; at eNOS [1], 10.9 µM; at human nNOS, 0.125 µM. Further, at human nNOS (Ki from IC50 by Cheng-Prusoff), the “Ki hnNOS” value was “good potency”.

`Fc1cccc(CCCNCCc2ccnc(-n3ccnn3)n2)c1` [Compound 30]: the Ki on rat nNOS (setting [6]) came out at 60 µM.

The compound `Cc1cn(-c2nccc(CCNCCCc3cccc(F)c3)n2)cn1` [Compound 31] yielded an IC50 against CYP3A4 of 15 µM. Further, the Ki on rat nNOS (setting [6]) came out at 0.667 µM; at rat nNOS (read-out: potency for nNOS), 0.667 µM; at human nNOS, 4.49 µM; at iNOS [5] it was 287 µM. The Ratios n/e with eNOS [2] is reported as 256. In addition, on iNOS [3], the Ratios n/i is 430.

For `Fc1cccc(CCNCCc2cncc(-n3ccnc3)c2)c1` [Compound 48], the Ki on rat nNOS (setting [6]) worked out at 5.5 µM.

As usually defined, the IC50 is the concentration that inhibits the measured activity by half. High values mean weaker potency, low ones greater potency.

The values are drawn from US9878996B2, “2-imidazolyl-pyrimidine scaffolds as potent and selective inhibitors of neuronal nitric oxide synthase” (Northwestern University, priority 2014, dated 2018).
